Molecular target: T1, Bovine thrombin (Bos taurus, UniProt P00735)
T1 construct: Bovine thrombin was titrated to an appropriate concentration
Experiment: thrombin induced fibrin clot inhibition assay
Format: biochemical
Settings: read-out: In vitro potency
Protocol: Samples were tested in a thrombin induced fibrin clot inhibition assay. All the solutions of the assay were made with an assay buffer containing 0.12 M sodium chloride, 0.01 M sodium phosphate, 0.01% sodium azide and 0.1% bovine serum albumin, pH 7.4. […] This solution of thrombin (50 ul; 0.2 pmol) was added to the wells of a microtiter plate containing 50 ul of a solution of the synthetic peptide being tested. […] The turbidity of the solution was monitored by the autoreader at 5 min intervals. […] For the assays using human or bovine thrombin, thrombin was titrated to concentrations that gave the fibrin clot at the same rate over a 30 min period.

CC[C@H](C)[C@H](NC(=O)[C@@H]1CCCN1C(=O)[C@H](CCC(=O)O)NC(=O)[C@H](Cc1cc(I)c(O)c(I)c1)NC(=O)CCC(=O)O)C(=O)N1CCC[C@H]1C(=O)N[C@@H](CCC(=O)O)C(=O)N[C@@H](CCC(=O)O)C(=O)N[C@@H](C)C(=O)N[C@@H](CC1CCCCC1)C(=O)N[C@H](CCC(=O)O)C(=O)O [Example 1]
IC50: < 25 µM
